# Laboratory results from patent publication US20070185431A1, “Galvanic Current Skin Treatment” (priority 2006, published 2007).
# Entries after “also recorded” stand apart in the source; their conditions may differ.
# Experiments:
# [1] = cited from earlier work
# [2] = Franz cell skin penetration of the other compounds with and without current (Phoresor)
# Excerpt: Thus, for a 1% theobromine solution, a Tris-glycine buffer at pH 12 was chosen. […] By putting theobromine into 0.1N NaOH at pH 12, this compound is ionized to a negative charge. No information was readily available regarding the pKa of Ergothioneine (Thiotaine) but based on its structure, it would appear to have a relatively low pKa and thus be negatively charged at pH 8.0.
# For experiments, the electrodes from the Phoresor were applied to the Franz unit with the negative electrode in contact with the skin's surface and in contact with the compound solution being applied. Each compound was tested on 5 skins for skin penetration without current and 5 skins for skin penetration with current.
# Note that the time=0 for the bar graphs discussed below represents the time at which the galvanic current was terminated.
# A 60 microliter solution of aminophylline in PBS (pH 7.0) gelled slightly with 0.5% HEC was applied to human breast skin mounted in Franz cell chambers. A 0.4 mAmp current was applied for either 6.25 minutes (for a 2.5 mAmp×time dose) or 12.5 minutes to produce a 5 mAmp×time dose. At 6 hours samples were withdrawn for analysis and a second dose applied only to the skin receiving a 2.5 mAmp×time pulse at T=0. Samples were withdrawn for analysis at T=12 hours and again at T=24 hours.
# Thus, its rate of dissociation is not going to be high in an aqueous solvent. in order to shift the equilibrium to the anion form of theobromine we prepared a 1% solution in Tris-glycine buffer adjusted to pH 12 with IN NaOH. Franz studies were then carried out using a 2.5 mAmp×time pulse.
# [3] = Skin penetration of caffeine in Franz cells with iontophoretic instrument, pre-selected current dose; type: in vitro ADME, human
# Protocol: For the first studies, Franz cells were dosed once with either: 1) no current (control), 2) 2 mAmp-minutes, 3) 5 mAmp-minutes, or 4)10 mAmp-minutes. Samples of the Franz receptor fluid were analyzed at 6, 12 and 24 hours after the current dose.
# Because a consumer might use this product morning and evening, we separated the dose treatments by 10 hours. The experimental protocol involved applying a saline solution of 1% caffeine (pH 7.2) to human skins mounted in Franz cells. The groups were: 1) control-no dosing, 2) a dose of 2.5 mAmp-minute (0.375 mAmps for 6.67 minutes) repeated at 10 hours, and 3) a single 5 mAmp-minute. All groups contained 5 replicates. For these studies, the caffeine was only applied to the skin during the dosing phase. When a second current application was applied to the 2.5 mAmp-minute group at 10 hours, not only was the caffeine solution added to these skin samples, but it was also placed on the 5 mAmp-minute skins even though these were not treated again with current. This controlled for any skin penetration simply due to the presence of the caffeine solution on the skin. After dosing was completed any remaining caffeine solution was removed from the skin.
# Because of the long duration of these studies, dosing was usually initiated at 7:00 am and 6 hours later the first samples were collected for analysis. At T=10 hours (5 pm) a second sample was collected and the 2.5 mAmp-minute group dosed a second time. At T=16 hours (11:00 pm) another sample was collected from the lower reservoir, and at T=24 the final samples were collected.
# For this study, the caffeine solution was not removed from skins immediately after dosing but left on the skin for the duration of the experiment.
# We conducted dose-response studies to begin to answer this question. For these studies, skins were dosed only once with either 0.6, 1.3, 2.5 or 5 mAmp-minutes with the current held constant at 375 uamps, the maximum output of the Galvanic unit. To each skin 400 microliters of a 1% caffeine in saline solution was applied. In order to minimize evaporation during the study, the caffeine solution was gelled slightly with hydroxyethylcellulose. Six hours after dosing, samples from the lower receptor fluid were collected and analyzed for caffeine.
# [4] = Skin penetration of caffeine in modified Franz cells with galvanic current application device; type: in vitro ADME, human
# Excerpt: According to one embodiment, another method and apparatus relates to a modified Franz cell instrument and method of testing iontophoresis across a cellular membrane and the effects of an electrical current on the membrane after the electrical current has been removed. […] In this embodiment, a electrical current application device 18 is operably coupled to the Franz cell via a copper wire that connects the two electrodes of the device 18 to the Franz cell. In this embodiment, the negative electrode 16 contacts the surface of the cellular membrane via a copper wafer electrode while the positive electrode 14 is placed in the lower Franz fluid reservoir 12 to complete the circuit. Alternatively, any configuration that allows for application of an electrical current to the cellular membrane placed in the Franz cell is contemplated. According to one embodiment, the apparatus as set forth in FIG. 2 can be used to test the effects of applying electrical current to a cellular membrane.
# To perform this examination, three modified Franz cells—each similar to the apparatus depicted in FIG. 2—were placed in series. […] As is understood in the art, 1 milliamp equals 1,000 microamps.
# To determine the effectiveness of the current application device in enhancing the penetration of caffeine through human skin, a 1% caffeine solution was prepared in saline solution at a pH of 7.2 and an infinite dose (500 micro liters) applied to the surface of human skin mounted onto Franz cell units. One set of skin samples was left untreated to serve as the control group for passive skin penetration of caffeine. A second set was treated with one 3 minute cycle of the Galvanic unit delivering 120 microamps per skin. The standard convention for expressing the current “dose” the skin receives is Current×Time. Thus, the skin in this group received 360 microamp-minutes of current (120 microamps×3 minutes). A third group of skins were treated with 3 cycles of current (1080 microamp-minutes [shown as 1.1 mA]), and the fourth group received a dose of 4.32 mAmp-minutes (12 cycles at 3 minutes/cycle delivering 120 microamps).
# Samples were collected at 6, 12 and 24 hours and the amount of caffeine present in the receptor fluid determined by HPLC.
# [5] = cited from earlier work; remark: listed apart in the source
smiles,measurement,setting,value
NC(=O)NCCC[C@H](N)C(=O)O [Citrulline],pKa,[1],9.4
"C[N+](C)(C)[C@@H](Cc1c[nH]c(=S)[nH]1)C(=O)[O-] [Thiotaine, Ergothioneine]",skin penetration to lower chamber reservoir without current,"[2]; no current, 24 hours",no compound had penetrated the skin
same,relative skin permeability among the compounds studied,[2]; simple buffer systems,least permeable
same,levels in the lower reservoir with current,"[2]; single dose of 2.5 mAmp×time, 12 and 24 hours",measurable Thiotaine levels in the lower reservoir
Cn1c(=O)c2[nH]cnc2n(C)c1=O [aminophylline],increase in skin flux,[2],only a modest increase in skin flux
same,"skin penetration enhancement, FIG. 9A",[2],produced enhanced skin penetration
same,skin penetration without current,[2],relatively high skin penetration
same,"enhancement in skin penetration over control values, extrapolated","[2]; human, 1 %",23%
same,"enhancement in skin penetration, extrapolated","[2]; human, 1 %",9%
same,increase in skin penetration,"[2]; human, 24 h, 1 %",approximately 1.7 fold
same,skin penetration: two treatments of 2.5 mAmp×time versus single 5 mAmp×time pulse,"[2]; human, 24 h, 1 %, pH 7",did not equal the skin penetration seen with a single 5 amp×time pulse
same,pKa,[1],5.0
Cn1c(=O)c2c(ncn2C)n(C)c1=O [caffeine],skin penetration: two 2.5 mAmp-minute doses versus one dose,[3],significantly more skin penetration of caffeine than one dose
same,increase in the penetration of caffeine,"[3]; 2 mAmp-minute dose, 6 hours after treatment",1.5 fold
same,time post-dosing at which penetration enhancement was detectable,"[3]; 2.5 and 5 mAmp-minute groups, caffeine removed after dosing",≤ 6 h
same,increase in the amount of caffeine penetrating the skin,"[3]; 5 mAmp-minute dose, 6 hours",3 fold
same,amount of caffeine present in the receptor as fraction of applied dose,"[3]; 5 mAmp-minute dose, 24 hours",4 % of applied dose
same,time after dosing at which enhanced penetration can be detected,"[3]; 5 mAmp-minute dose, caffeine solution left on skin",≤ 3 h
same,increase in the amount of caffeine penetrating the skin,"[3]; 10 mAmp-minute dose, 6 hours",4 fold
same,amount of caffeine penetrated: 2.5 mAmp-minute dosed twice versus 5 mAmp-minute dosed once,[3]; 24 hours,no significant difference; also recorded: as much caffeine penetration as a single 5 mAmp-minute dose
same,effect of a second 5 mAmp-minute dose versus a single 5 mAmp-minute dose,"[3]; 24 hours, caffeine left on skin",no additional accumulation of caffeine; also recorded: does not appear to significantly enhance caffeine skin penetration
same,caffeine in the receptor without current,"[3]; control skins, no current, 3 hours",no presence of caffeine in the receptor
same,time after dosing at which skin penetration enhancement can be detected,[3]; single 2.5 mAmp-minute dose,≤ 3 h
same,skin penetration enhancement,"[3]; single dose of 0.6 mAmp-minutes at 375 uamps, 6 hours, gelled 1% caffeine",will enhance skin penetration
same,current level above which maximal skin penetration occurs (sigmoidal fit),"[3]; single dose, 6 hours",3-5 mAmp-minutes
same,penetration enhancement of single 2.5 mAmp-minute dose relative to single 5 mAmp-minute dose,[3]; single doses,about 50%
same,penetration enhancement of caffeine through the skin,[4]; 1 cycle (360 microamp-minutes),ineffective in causing any detectable penetration enhancement
same,penetration enhancement of caffeine compared to control,"[4]; 3 cycles (1080 microamp-minutes), 24 hours",some marginal enhancement of penetration; also recorded: some small enhancement in skin penetration
same,penetration enhancement of caffeine through human skin,"[4]; 6 cycles (2.2 mAmp-minutes), 24 hours",did enhance delivery of caffeine
same,amount of caffeine that had penetrated skin relative to control group,"[4]; 12 cycles (4.32 mAmp-minutes), 24 hours, 1% caffeine in saline pH 7.2",6 times
same,time at which increase in skin penetration was detectable,[4]; 12 cycles (4.32 mAmps-min),≤ 6 h
CCOC(=O)c1cccnc1 [ethyl nicotinate],skin penetration enhancement,[2],enhanced skin penetration
same,time after application at which compound is detectable in the lower reservoir fluid,"[2]; human, 1 %",≤ 2 h
same,time at which enhanced effect of current is detectable,"[2]; human, 1 %",about 4 hour
same,amount of compound in the receptor fluid,"[2]; human, 24 h, 1 %",over 1000 micrograms
Cn1cnc2c1c(=O)[nH]c(=O)n2C [theobromine],skin penetration from the solvent used,[2]; pH 12,relatively poorly
same,pKa,[1],9.9
same,solubility,[5],virtually insoluble in any solvent except dilute alkali; also recorded: essentially insoluble in any solvent other than alkali
